“Also recorded” adds a separate entry of the source.
Columns and labels:
Format in all cases: physicochemical
[1] = Solid form stability by XRPD (ambient conditions, humidity, drying)
Description: (§1) Carbamathione (50 mg) and one equivalent of L-Lysine were weighed in an 8-mL glass vial. Water (1-2 mL) was added and the mixture was allowed to stir for 24 hours. The equimolar mixture of carbamathione and L-Lysine was soluble in water and no precipitate was observed after 24 hours of stirring. The solution was left to evaporate at high temperature (60° C.) and an off-white solid was isolated. XRPD analysis confirmed the recovery of new derivative TNX1001-LLYS-NP01 (FIG. 15).
After 24 hours of stirring, the solid was collected and analyzed by XRPD, and a new diffraction pattern was observed (FIG. 18). This new pattern was labeled as TNX1001-LLYS-NP02. […] After the drying step, the sample was exposed to humidity for 24 hours and the diffractogram acquired again.
From the experiments carried out with L-lysine in organic media, a second new diffraction pattern was also observed, in particular when an equimolar mixture of TNX1001-SM and L-lysine co-former was slurried at room temperature for 24 hours in Methanol or Dichloromethane (TNX1001-LLYS-NP02).

[2] = Dynamic vapor sorption (DVS) analysis
Description: The anhydrous carbamathione lysine salt (TNX1001-LLYS-NP01) was subjected to dynamic vapor sorption (DVS) analysis (FIG. 35). […] Similarly, the desorption curves display a clear decrease in mass between 30% and 20% RH. This behavior is consistent with a compound forming a hydrate species. Additionally, based on the water uptake of approximately 6.1% w/w at 70% RH, the hydrated form of the salt is likely a dihydrate species (FIG. 36).
The sorption/desorption cycle was performed twice.

[3] = Stability studies, one month storage at controlled temperature and humidity, XRPD
Description: Approximately 50 mg of the anhydrous carbamathione lysine salt was placed in a glass vial crimped with a PTFE/silicone septum and stored at the desired temperature and humidity for one month. Controlled humidity was realized employing saturated solutions of salts: NaCl for 75% RH at 40° C. and NaBr for 60% RH at 25° C. After storage, the samples were analyzed by XRPD analysis. Each stability test was performed in duplicate.

[4] = Dissolution temperature in buffers (Crystal16) and estimated solubility at 25° C.
Description: Three different buffer solutions were prepared according to European Pharmacopoeia procedures (pH 1.2), or by diluting commercially available concentrate buffer solutions (pH 4.5 and 6.8).
Phosphate buffer at pH 6.8 was prepared by diluting a commercially available concentrate solution (Reagecon) with HPLC grade water. The final pH was adjusted using a 1 M NaOH solution.
Acetate buffer at pH 4.5 was prepared by diluting a commercially available concentrate solution (Reagecon) with HPLC grade water. The final pH was adjusted using concentrated acetic acid and a 1 M NaOH solution.
A buffer at pH 1.2 was prepared by mixing NaCl (0.2 M, 125 mL) and HCl (0.2 M, 212.5 mL) solutions followed by adjusting the volume to 500 mL. The pH was adjusted with a 1 M NaOH solution.
The determination of the dissolution temperature was performed in the automatic reactor system Crystal16. The system allows for careful control of the temperature and is equipped with a turbidimeter enabling the detection of the complete dissolution of the solid. The proper amount of compound was accurately weighted in a 1.5 mL vial equipped with a magnetic stirring bar. The selected buffer solution was pre-cooled in a refrigerator and the proper volume was added to the vial. The suspension was placed in the automatic reactor system pre-cooled at 10° C. and stirred at 600 rpm. The temperature was kept constant for 5 minutes to allow the system to equilibrate. The temperature was then increased at 0.5° C./min until a clear solution was obtained. For each pH, four solutions with increasing concentration were prepared and subjected to the same temperature program.
Although this is incorrect from a theoretical point of view, the closeness of the experimental value at 24° C. limited the error made by using this simple approximation.
Although this is incorrect from a theoretical point of view, the closeness of the experimental value at 26° C. limited the error made by using this simple approximation.

[5] = Water solubility observed in slurry experiment in water; conditions: room temperature; equimolar L-lysine adduct
Description: as §1
The synthesis of the new derivative, TNX1001-LLYS-NP01, was carried out to facilitate its complete characterization. TNX1001-SM (150 mg) and L-Lysine (1 eq., 54 mg) were accurately weighed in a vial equipped with a magnetic stirring bar. H2O (3 ml) was added and the mixture was stirred at room temperature for 4 hours until a clear solution was obtained. The solution was filtered through a 0.45 μm RC-filter and the filtrate was evaporated at high temperature (60° C.). The recovered off-white solid was compared with the sample that was obtained from the slurry experiments in water by XRPD analysis to confirm the recovery of desired derivative (FIG. 26). The product was completely characterized using the methods outlined in Table 8 (see FIGS. 27-33).

## CCN(CC)C(=O)SC[C@H](NC(=O)CC[C@H](N)C(=O)O)C(=O)NCC(=O)O.NCCCC[C@H](N)C(=O)O [TNX1001-LLYS-NP01]
[1]; after 24 hours and up to 4 days
  stability of the solid form under ambient conditions (XRPD): good stability; also recorded: stable
[1]; approximately 24 hours, ambient conditions
  solid form after exposure of the dried sample to humidity (XRPD): converted spontaneously to initial form TNX1001-LLYS-NP02; also recorded: reconversion of the NP01 form into the NP02 form
[2]; at 70% RH
  water uptake (DVS): approximately 6.1 % w/w
[2]; hydrated and anhydrous species
  water uptake and water release over two sorption/desorption cycles: reversibly
[3]; one month at 25° C. and 60% RH
  solid state stability (XRPD): stable
[3]; one month at 40° C. and 75% RH
  solid state stability (XRPD): stable
[4]; pH 1.2
  Solubility TNX1001-LYS: Not stable. TNX1001
[4]; pH 1.2 (NaCl/HCl buffer), converted into the parent carbamathione
  stability in buffer: not stable
[4]; pH 1.2 buffer, Conc. TNX1001-LYS 297 mg/mL (79 after dilution)
  Tdiss.: Dissolve and re-precipitate
[4]; pH 1.2 buffer, Conc. TNX1001-LYS 349 mg/mL, after dilution to 93 mg/mL
  Tdiss.: Dissolves above 80 °C
[4]; pH 1.2 buffer, Conc. TNX1001-LYS 400 mg/mL, after dilution to 107 mg/mL
  Tdiss.: Dissolves above 80 °C
[4]; pH 1.2 buffer, Conc. TNX1001-LYS 455 mg/mL, after dilution to 121 mg/mL
  Tdiss.: Dissolves above 80 °C
[4]; pH 4.5, 25° C.
  solubility increase compared with free carbamathione: approximately 17%
[4]; pH 4.5, 25° C., estimated by linear approximation, equivalent amount of TNX1001 dissolved
  Solubility TNX1001-LYS: 299 mg/mL of TNX1001
[4]; pH 4.5 acetate buffer, Conc. TNX1001-LYS 249 mg/mL
  Tdiss.: <10 °C
[4]; pH 4.5 acetate buffer, Conc. TNX1001-LYS 299 mg/mL
  Tdiss.: 16 °C
[4]; pH 4.5 acetate buffer, Conc. TNX1001-LYS 356 mg/mL
  Tdiss.: 26 °C
[4]; pH 4.5 acetate buffer, Conc. TNX1001-LYS 401 mg/mL
  Tdiss.: 33 °C
[4]; pH 6.8, 25° C.
  solubility increase compared with free carbamathione: approximately 10%
[4]; pH 6.8, 25° C., estimated by linear approximation, equivalent amount of TNX1001 dissolved
  Solubility TNX1001-LYS: 255 mg/mL of TNX1001
[4]; pH 6.8 phosphate buffer, Conc. TNX1001-LYS 199 mg/mL
  Tdiss.: <10 °C
[4]; pH 6.8 phosphate buffer, Conc. TNX1001-LYS 223 mg/mL
  Tdiss.: <10 °C
[4]; pH 6.8 phosphate buffer, Conc. TNX1001-LYS 340 mg/mL
  Tdiss.: 24 °C
[4]; pH 6.8 phosphate buffer, Conc. TNX1001-LYS 397 mg/mL
  Tdiss.: 33 °C
[5]
  water solubility as compared to free carbamathione: clear improvement
